Assay results as given in patent US7629318B2, “Immunosuppressant compounds, methods and uses related thereto” (priority 2002, dated 2009).
Where “and” joins values, the source holds several entries; their conditions need not be identical. Equal entries are not always repeated. Numbered stars: 1 amine (or outer) side, 2 acyl side, 3 side chain; on linkers, the order of the positions; unused ones are H or OH. Square brackets hold non-standard residues; d marks the D form. Peptide text beside a SMILES is read from it. X1 = CC(C)c1oc([C@H](CO)N[*:1])nc1C(=O)[*:2]; Pro(3R-Ph) = O=C(O)[C@H]1NCC[C@@H]1c1ccccc1; Tic = O=C(O)[C@@H]1Cc2ccccc2CN1; Cha = N[C@@H](CC1CCCCC1)C(=O)O

Experiments:
[1] = tested on: T cell activation from 0401(DR4) chimeric MHCII-mice; assay: In vivo inhibition of T cell activation by co-immunisation, DR4 mice immunised with HEL; parameters: species or system mouse; % Reduction of response to PPD(HEL): concentration or dose not given beside the values
Text: (§1) Mouse strains DR4 and DR14 carry chimeric MHC-II transgenes that encode the N-terminal domains of the respective DR molecules (forming the peptide binding site) and the remaining (2nd extracellular domains, transmembrane and intracytoplasmic domains) of the murine class II molecule I Ed. These strains are deficient of other murine class II, and thus, all helper T cell responses are triggered by peptides presented in the respective human MHC-II binding site. As an initial in vivo test of subject inhibitors designed to bind to DR, DR-transgenic mice were co-immunized with a pre-defined dose of protein antigen and different amounts of the compound antagonist to be tested. In this set-up, both antigen and compound were emulsified together in complete Freund's adjuvant (CFA), and thus, a direct competition between the two components for presentation by DR was tested. Readout of the assay is ex vivo antigen-specific activation of T cells from regional lymph nodes explanted 9 days after co-immunization. In a typical experiment, antigen dose-response was investigated, and the curves from mice immunized with antigen were compared to those from mice co-immunized with antigen+compound. The dose response curves were generated using lymph node cells pooled at equal numbers from 2-3 mice per experimental group. The experimental system also permits assessment of inherent antigenicity of the compound antagonist. This was done by setting up a dose-response study from the same cell pool using different concentrations of the compund under investigation instead of the antigen. As a specificity control, the response to Purified Protein Derivative (PPD), the major protein component of CFA, was tested in the same cell pool.
(§2) All Gpg conataining compounds have significant immunosupressive properties in one or both of the in-vivo models. Gpg-containing compounds also show improved activity or improved specificity over the Arg-containing equivilent. Further, compounds according to Formula I show activity in this assay.
(§3) Compounds of the invention were injected as an Emulsion prepared using CFA (Bacto Adjuvant Complete H37 Ra, Difco, Order-No. 3113-60); proteins 10 mg/ml in PBS, inhibitors 5 μM in 10% DMSO. CFA, PBS, antigen, and inhibitor were placed in the barrel of a 5-ml syringe (total volume not more than 1 mL). The mixture was sonicated at an amplitude less than 40% (30-35%) for two separated 15 s periods. The emulsion should seem to be hard and not liquid at this point. A drop of emulsion placed on the surface of water should not melt. The resulting emulsion was pushed through the needle into a 1 ml syringe with a needle (Gr.18, 26G×1″), and air bubbles were removed. Mice were co-immunized with 50 μg protein and 210 nM compound antagonist in final 100 μl emulsion into the tail base. Antigen+Compound and CFA are mixed 1:1 vol/vol. The best results are obtained using DR 4 mice immunised with HEL and DR 14 mice immunized with OVA.
(§4) Mice were injected at the tail-base as follows: Holding the tail of a mouse with thumb and middle finger, the index finger was placed under the base of the mouse's tail. The needle of the syringe was inserted about 1.5 cm from the tail base (hairy end) under the skin and pushed about 1 cm into the tail. 100 μl emulsion was injected into the mouse. After 9 days, mice were killed and lymph nodes removed.
(§5) The inhibitory effect of the candidate compounds on T-cell activation was tested using T-cells and antigen-presenting cells isolated from the lymph nodes of chimeric DR4-IE transgenic mice (Taconic, USA) previously co-immunized with hen egg lysozyme plus compound, or DR14-IE transgenic mice co-immunized with ovalbumin plus compound according to standard procedures (Adorini et al., 1988, Mueller et al., 1990; Current Protocols in Immunology, Vol. 2, 7.21; Ito et al., 1996). […]

[2] = tested on: T cell activation from 0404(DR14) chimeric MHCII-mice; assay: In vivo inhibition of T cell activation by co-immunisation, DR14 mice immunised with OVA; parameters: species or system mouse; % Reduction of response to PPD(OVA): concentration or dose not given beside the values
Text: as §1, §2, §3, §4, §5

[3] = molecular target: DR4Dw4 (DRA1*0101 DRB1*0401) (Homo sapiens, UniProt P01903+P01911, A100K/A169T/F76Y/I96L/K127E/L162R/M171V/N62H/P40V/Q125Y/R42H/S133A/S149N/S66Y/V115G/V209L/W38E); assay: Competitive binding to MHC-II protein DR4Dw4
Outline: (§6)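 Each MHC-II allele incubated with compound 16 hours at room temperature in duplicate; controls lacked compound, or both compound and MHC-II. Complexes captured 2 h at 4 °C, bound biotinylated peptide detected via europium-streptavidin and DELFIA enhancement, time-resolved fluorescence read at ex 340/em 613 (615) nm.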

[4] = molecular target: DR1 (DRA1*0101 DRB1*0101) (Homo sapiens, UniProt P01903+P01911, A100R/D57E/F55L/F60I/F76Y/I96L/L162R/M171V/P40L/Q125E/R42F/V115G/Y59C); assay: Competitive binding to MHC-II protein DR1; conditions: Protein binding IC50 (nM) 0101, 0101
Outline: as §6

[5] = molecular target: DR4Dw14 (DRA1*0101 DRB1*0404) (Homo sapiens, UniProt P01903+P01911, A100R/A169T/F76Y/I96L/K127E/L162R/M171V/N62H/P40V/Q125Y/R42H/S133A/S149N/S66Y/V209L/W38E); assay: Competitive binding to MHC-II protein DR4Dw14; conditions: 0404; read-out: Protein binding IC50 (nM) 0404
Outline: as §6

[6] = molecular target: T1, Priess (DR4Dw4: DRA1*0101 DRB1*0401) cells (Homo sapiens, UniProt P01903+P01911, A100K/A169T/F76Y/I96L/K127E/L162R/M171V/N62H/P40V/Q125Y/R42H/S133A/S149N/S66Y/V115G/V209L/W38E); assay: Competitive binding to MHC II proteins expressed on Priess cells; format: cell-based
T1 construct: MHC II Proteins Expressed on PRIESS and LG2 Cells; endogenous in cells; host or cells: Priess cells
Description: (§7) For use in the binding assay the cells were re-suspended in medium containing 1% FCS at a density of 2.5×10^6 cells/ml.
(§8) The assay was performed in sterile 96 well polystyrene microtiter plates. A 10 fold dilution series of compounds (16 nM-1615 μM) in 1% FCS was prepared from 5 or 10 mM compound stock solutions in 10% DMSO/water. 50 μl of each compound dilution were added in duplicates to 50 μl of a 16 μM solution of indicator peptide in 1% FCS. Cell binding was initiated by adding 100 μl of 2.5×10^6 cells/ml 1% FCS to each well. Controls were included containing the DMSO concentration present in the solution with the highest compound concentration. The cells were incubated at 37° C., 6% CO2. After 4 hours the cells were washed with 200 μl PBS and lysed in 200 μl lysis buffer (50 mM sodium phosphate, 150 mM sodium chloride, 1% (w/v) NP-40, 25 mM iodoacetamide, 1 mM PMSF, 3.1% protease inhibitor cocktail: 0.32 g/l of Chymostatin, Antipain, Pepstatin A, Soybean trypsin inhibitor and Leupeptin each, pH 7.5) for 10 min.
(§9) After washing with PBS, 190 μl of cell lysate were transferred to the appropriate wells of the capture plate and incubated for 2 h at 4° C. The wells were washed six times with 200 μl/well cooled (4 to 8° C.) of 1×DELFIA wash (Wallac-ADL-GmbH, Freiburg), incubated with 100 μl of cooled Europium-streptavidin conjugate (Wallac-ADL-GmbH, Freiburg; diluted 1/1000 with DELFIA assay buffer) for 30 minutes at 4° C., again washed six times with cooled 1×DELFIA wash and, finally, incubated with 200 μl cooled DELFIA enhancement solution (Wallac-ADL-GmbH, Freiburg) for one hour at room temperature before reading the time-resolved europium fluorescence at λex Eu^3+: 340 nm and λem Eu^3+: 613 (615) nm (Wallac Victor^2 1420 Multilabel Counter, Wallac-ADL-GmbH, Freiburg).

[7] = molecular target: T2, LG2 (DR1: DRA1*0101 DRB1*0101) cells (Homo sapiens, UniProt P01903+P01911, A100R/D57E/F55L/F60I/F76Y/I96L/L162R/M171V/P40L/Q125E/R42F/V115G/Y59C); assay: Competitive binding to MHC II proteins expressed on LG2 cells; format: cell-based; conditions: Cell binding IC50 (uM) LG2 (0101), LG2 (0101)
T2 construct: MHC II Proteins Expressed on PRIESS and LG2 Cells; endogenous in cells; host or cells: LG2 cells
Description: as §7, §8, §9

[8] = tested on: T-cell proliferation, lymph node cells of chimeric 0401-IE transgenic mice; conditions: read-out: Immunsupressive assays DR4-LN (IC50); DR4-LN
Description: The compounds were tested as follows to inhibit the proliferative T cell response of antigen-primed lymph node cells from mice carrying a chimeric mouse-human class II transgene with an RA-associated peptide binding site, and lack murine class II molecules (Muller et al., 1990; Woods et al., 1994; Current Protocols in Immunology, Vol. 2, 7.21; Ito et al., 1996). Here, the immunization takes place in vivo, but the inhibition and readout are ex vivo. […] These mice lack murine MHC class II, and thus, all Th responses are channelled through a single human RA-associated MHC class II molecule (Ito et al. 1996). These transgenic mice represent a model for testing human class II antagonists.
1.5×10^5 cells are incubated in 0.2 ml wells of 96-well tissue culture plates in the presence of ovalbumin (30 μg per well—half-maximal stimulatory concentration) and a dilution series of the compound under test (from around 0.1 to 200 uM) in serum free HL-1 medium containing 2 mM L-glutamine and 0.1 g/l Kanamycin for three days. Antigen specific proliferation is measured by 3H-methyl-thymidine (1 μCi/well) incorporation during the last 16 h of culture (Falcioni et al., 1999). Cells are harvested, and 3H incorporation measured using a scintillation counter (TopCount, Wallac Finland).

[9] = molecular target: Cathepsin B1 (EC 3.4.22.1 from bovine spleen) (Bos taurus, UniProt P07688); conditions: Cathepsin B, 4 h
Cathepsin L = Cathepsin L (Homo sapiens, UniProt P07711)
[10] = tested on: T-cell proliferation, DR14-LN; conditions: read-out: Immunsupressive assays DR14-LN (IC50)

Molecule	% Reduction of response to HEL ([1]; DR4 mice co-immunised with HEL plus compound, mean % inhibition from the control over 3 concentrations of antigen (6.7, 20 and 60 ug))	% Reduction of response to PPD(HEL) ([1]; specificity control: response to PPD in the same cell pool, HEL co-immunised mice)	% Reduction of response to OVA ([2]; DR14 mice co-immunised with OVA plus compound, mean % inhibition from the control over 3 concentrations of antigen (6.7, 20 and 60 ug))	% Reduction of response to PPD(OVA) ([2]; specificity control: response to PPD in the same cell pool, OVA co-immunised mice)	IC50 [3]	IC50 [4]	IC50 [5]	IC50 [6]	IC50 [7]	IC50 [8]	Stability (Arbitrary units) Cath B 4 h [9]	Stability (Arbitrary units) Cath L 4 h (Cathepsin L)	IC50 [10]
Ac-Cha-Gpg-Disc-Nle-βPhPro-[S(oxaz)L]-NMe2 [Compound P61-1]	37.9%	32.3%	3.7%	29.9%	–	–	–	–	–	–	–	–	–
CSCC[C@H](NC(=O)[C@@H]1Cc2ccccc2CN1C(=O)[C@H](CCCNC(=N)N)NC(=O)[C@H](CC1CCCCC1)NC(C)=O)C(=O)N1CC[C@H](c2ccccc2)[C@H]1C(=O)N[C@@H](CO)c1nc(C(=O)N(C)C)c(C(C)C)o1 [Compound P33, Ac-Cha-Arg-Tic-Met-βPhPro-[S(oxaz)L]-NMe2] (Ac-[Cha]R[Tic]M[Pro(3R-Ph)][X1]-NMe2)	–	–	–	–	0.3 µM	190 nM	220 nM	3.2 µM	4.6 µM	40 µM	97 Arbitrary units and 98 Arbitrary units	107 Arbitrary units	32 µM
